Patent US4816477A, “Antihypercholesterolemic β-lactones” (Merck & Co., Inc., priority 1987, dated 1989)
pIC50: −log10 of the molar value.

Target: T1, HMG-CoA synthase (Rattus norvegicus, UniProt P17425)
T1 construct: The livers from male Charles River CD rats (225-350 g) were homogenized in 0.25 M sucrose; from tissue; host or cells: rat liver (male Charles River CD rats), 100,000×g supernatant, ammonium sulfate precipitate, DEAE-52 fraction
T1 sequence (P17425 1-520): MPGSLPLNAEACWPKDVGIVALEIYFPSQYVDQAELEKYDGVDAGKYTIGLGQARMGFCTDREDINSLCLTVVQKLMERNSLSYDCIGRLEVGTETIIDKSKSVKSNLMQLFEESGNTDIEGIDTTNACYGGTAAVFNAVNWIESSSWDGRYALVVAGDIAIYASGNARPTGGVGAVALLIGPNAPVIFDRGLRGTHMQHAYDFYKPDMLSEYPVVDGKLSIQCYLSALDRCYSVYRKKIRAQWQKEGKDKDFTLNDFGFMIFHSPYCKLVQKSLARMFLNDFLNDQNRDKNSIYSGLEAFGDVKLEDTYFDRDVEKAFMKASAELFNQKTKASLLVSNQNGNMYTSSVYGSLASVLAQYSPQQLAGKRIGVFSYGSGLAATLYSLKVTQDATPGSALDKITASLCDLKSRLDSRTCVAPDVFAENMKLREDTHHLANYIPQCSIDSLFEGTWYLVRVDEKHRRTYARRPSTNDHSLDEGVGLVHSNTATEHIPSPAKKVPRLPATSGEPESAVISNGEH
Assay: HMG-CoA Synthase Inhibition Assay
Format: biochemical
Settings: for pIC50: in vitro, enzyme from rat liver
Description: The intrinsic HMG-CoA synthase inhibition activity of the compounds of this invention is measured by the standard in vitro protocol described below:
The livers from male Charles River CD rats (225-350 g) were homogenized in 0.25 M sucrose which was adjusted with phenylmethylsulfonylfluoride (PMSF) and N-p-tosyl-1-lysine chloromethyl ketone (TLCK) so that the final concentration of each was […], respectively. The homogenate was centrifuged at 15,000×g for 20 minutes, the supernatant filtered through a fine nylon screen to remove most of the fat layer and recentrifuged at 100,000×g for 1 hour. This supernatant was removed and 1 M potassium phosphate, dithiothreitol (DTT) and ethylene glycol-bis(β-aminoethyl ether)-N,N,N',N'-tetraacetic acid (EGTA) added to give a final concentration of 0.1 M (pH 7.2), 0.5 mM and 0.1 mM, respectively. Solid ammonium sulfate was added to 50% saturation to the protein solution, it was centrifuged at 15,000×g and the supernatant discarded. This precipitated protein could be stored at -70° C. for at least one month with very little loss of activity. The ammonium sulfate precipitate was dissolved in an minimal amount of 0.06 M potassium phosphate buffer (pH 7.2) containing 0.5 mM dithiothreitol and 0.1 mM EGTA (referred to as 0.06 M phosphate buffer) and dialyzed overnight against 2 liters of the same buffer to remove the ammonium sulfate and to inactivate HMG-CoA lyase [Clinkenbeard, et al., J. Biol. Chem. 250, 3108-3116(1975)].
The dialyzed extract was added to a column of DEAE-52 (Whatman) which had been equilibrated with 0.06 M phosphate buffer (10 mg of protein to 1 ml bed volume of the resin). The DEAE-cellulose was eluted with 0.06 M phosphate buffer until the optical density at 280 nm was essentially zero. This fraction contained the β-ketoacetyl-CoA thiolase activity. The HMG-CoA synthase was eluted from the column with 0.1 M phosphate buffer (pH 7.2) containing 0.5 mM DTT and 0.1 mM EGTA, and was virtually free of all thiolase activity. The protein was precipitated by the addition of ammonium sulfate to give 50% saturation. This solution was stirred for 10 minutes at 4° C. and the precipitate collected by centrifugation at 15,000 rpm for 10 minutes. The supernatant was discarded and the precipitate dissolved in a minimum of 0.06 M phosphate buffer, pH 7.2 (about 10 ml) and the enzyme stored at -80° C.
HMG-CoA Synthase Inhibition Assay
Enzyme protein (ca. […]) was added to a solution containing 117 mM Tris-HCl (pH 8.0), 11.7 mM MgCl2, 1.17 mM ethylenediaminetetraacetic acid (EDTA), 0.58 mM dithiothreitol, and the indicated concentrations of the test compound (added as a 2 mg/ml solution in dimethylsulfoxide). The incubation took place in a volume of 0.085 ml at 30° in a shaking water bath. After 5 minutes, […] of a solution containing acetoacetyl-CoA and 0.1 μCi of 1-[^14 C]-acetyl-CoA was added to give a final concentrations of 0.1 and 0.4 μM, respectively. The incubation was continued for 10 more minutes and the reaction stopped by the addition of […] of the assay mixture to 0.2 ml of 6N HCl in a glass scintillation vial. The vial was heated for 1 hour at 120° after which time 0.2 ml more of 6N HCl was again added to each vial and the heating continued for another hour. Following this, 1.0 ml of 0.9% saline was added to each vial and finally 10 ml of scintillation liquid. Radioactivity was determined in a Packard Tri-Carb liquid scintillation counter. Percent inhibition is calculated by the formula: [formula] IC50 values were determined by plotting the log of the concentration of the test compound verses the percentage inhibition and fitting a straight line to the resulting data by using the least squares method.

| SMILES | pIC50 | also measured |
| --- | --- | --- |
| CC(=C\C(=O)O)/C=C(\C)CC(C)CCCCC1OC(=O)C1C (stereo not shown) [R^1=OH, R^2=H, 11-(3-methyl-4-oxo-2-oxetano)-3,5,7-trimethyl-2,4-undecadienoic acid] | 7.00 | – |
| COC(=O)/C=C(C)/C=C(\C)CC(C)CCCCC1OC(=O)C1CC#N (stereo not shown) [R^1=OCH3, R^2=CN, methyl 11-(3-cyanomethyl-4-oxo-2-oxetano)-3,5,7-trimethyl-2,4-undecadienoate] | 5.54 | – |
| CC(=C\C(=O)O)/C=C(\C)CC(C)CCCCC1OC(=O)C1CBr (stereo not shown) [R^1=OH, R^2=Br, 11-(3-bromomethyl-4-oxo-2-oxetano)-3,5,7-trimethyl-2,4-undecadienoic acid] | 5.85 | – |
| COC(=O)/C=C(C)/C=C(\C)CC(C)CCCCC1OC(=O)C1CN=[N+]=[N-] (stereo not shown) [R^1=OCH3, R^2=N3, methyl 11-(3-azidomethyl-4-oxo-2-oxetano)-3,5,7-trimethyl-2,4-undecadienoate] | 7.00 | – |
| CC(=C\C(=O)O)/C=C(\C)CC(C)CCCCC1OC(=O)C1CF (stereo not shown) [R^1=OH, R^2=F, 11-(3-fluoromethyl-4-oxo-2-oxetano)-3,5,7,-trimethyl-2,4-undecadienoic acid] | 6.55 | – |
| COC(=O)/C=C(C)/C=C(\C)CC(C)CCCCC1OC(=O)C1C (stereo not shown) [R^1=OCH3, R^2=H, methyl 11-(3-methyl-4-oxo-2-oxetano)-3,5,7-trimethyl-2,4-undecadienoate] | – | inhibition at 6 µM (at 6 × 10^-6 M, read-out: percent inhibition): 22.7%; IC25 (concentration giving 22.7 percent inhibition, read-out: IC25 (printed in the IC50 column, in parentheses)): 6 µM |
| COC(=O)/C=C(C)/C=C(\C)CC(C)CCCCC1OC(=O)C1CSC(C)=O (stereo not shown) [R^1=OCH3, R^2=drawing 3, methyl 11-(3-acetylthiomethyl-4-oxo-2-oxetano)-3,5,7-trimethyl-2,4-undecadienoate] | 5.00 | inhibition at 10 µM (at 10^-5 M, read-out: percent inhibition): 47.9% |
| CC(=C\C(=O)O)/C=C(\C)CC(C)CCCCC1OC(=O)C1CCl (stereo not shown) [R^1=OH, R^2=Cl, 11-(3-Chloromethyl-4-oxo-2-oxetano)-3,5,7-trimethyl-2,4-undecadienoic acid] | 6.52 | – |
